Patent US4657913A, “Trifluoro- quinoline -3-carboxylic acids and their use as anti-bacterial agents” (Warner-Lambert Company, priority 1985, dated 1987)
Converted amounts (≈) assume the structure as drawn.

Columns and labels:
Assay in all cases: microtitration dilution method, in vitro antibacterial activity (MIC)
Assay type in all cases: cell-based
[1] = system: Streptococcus faecalis MGH-2; settings: Enterococcus faecalis, MGH2, read-out: Minimal Inhibitory Concentration MIC
Description: (§1) The compounds of the invention display antibacterial activity when tested by the microtitration dilution method as described in Heifetz, et al, Antimicr. Agents & Chemoth., 6, 124 (1974), which is incorporated herein by reference.
(§2) By use of the above referenced method, the following minimum inhibitory concentration values (MICs in μg/ml) were obtained for representative compounds of the invention.

[2] = system: Proteus rettgeri M 1771; settings: Providencia rettgeri, M1771, read-out: Minimal Inhibitory Concentration MIC
Description: as §1, §2

[3] = system: Enterobacter cloacae MA 2646; settings: MA2646, read-out: Minimal Inhibitory Concentration MIC
Description: as §1, §2

[4] = system: Staphlococcus aureus H 228; settings: read-out: Minimal Inhibitory Concentration MIC
Description: as §1, §2

[5] = system: Klebsiella pneumoniae MGH-2; settings: MGH2, read-out: Minimal Inhibitory Concentration MIC
Description: as §1, §2

[6] = system: Staphylococcus aureus UC-76; settings: UC76, read-out: Minimal Inhibitory Concentration MIC
Description: as §1, §2

[7] = system: Pseudomonas aeruginosa UI-18; settings: UI18, read-out: Minimal Inhibitory Concentration MIC
Description: as §1, §2

[8] = system: Streptococcus pneumoniae SV-1; settings: SV1, read-out: Minimal Inhibitory Concentration MIC
Description: as §1, §2

[9] = system: Escherichia coli Vogel; settings: read-out: Minimal Inhibitory Concentration MIC
Description: as §1, §2

[10] = system: Streptococcus pyogenes C-203; settings: C203, read-out: Minimal Inhibitory Concentration MIC
Description: as §1, §2

SMILES | MIC [1] | MIC [2] | MIC [3] | MIC [4] | MIC [5] | MIC [6] | MIC [7] | MIC [8] | MIC [9] | MIC [10]
CCn1cc(C(=O)O)c(=O)c2c(F)c(F)c(N3CCC(CN)C3)c(F)c21 (centres unmarked) [Ex. 1A, 7-[3-(Aminomethyl)-1-pyrrolidinyl]-1-ethyl-5,6,8-trifluoro-1,4-dihydro-4-oxo-3-quinolinecarboxylic acid] | 0.8 µg/mL (≈ 2.17 µM) | 3.1 µg/mL (≈ 8.39 µM) | 0.8 µg/mL (≈ 2.17 µM) | 1.6 µg/mL (≈ 4.33 µM) | 0.8 µg/mL (≈ 2.17 µM) | 0.8 µg/mL (≈ 2.17 µM) | 3.1 µg/mL (≈ 8.39 µM) | ≤ 0.1 µg/mL | 0.8 µg/mL (≈ 2.17 µM) | ≤ 0.1 µg/mL
CCn1cc(C(=O)O)c(=O)c2c(F)c(F)c(N3CCC4(CCN(C)C4)C3)c(F)c21 (centres unmarked) [Ex. 1B, 1-Ethyl-5,6,8-trifluoro-1,4-dihydro-7-(7-methyl-2,7-diazaspiro[4.4]nonan-2-yl)-4-oxo-3-quinolinecarboxylic acid] | 1.6 µg/mL (≈ 3.91 µM) | 6.3 µg/mL (≈ 15.4 µM) | 0.8 µg/mL (≈ 1.95 µM) | 0.8 µg/mL (≈ 1.95 µM) | 1.6 µg/mL (≈ 3.91 µM) | 0.2 µg/mL (≈ 0.489 µM) | 6.3 µg/mL (≈ 15.4 µM) | 0.8 µg/mL (≈ 1.95 µM) | 0.8 µg/mL (≈ 1.95 µM) | 1.6 µg/mL (≈ 3.91 µM)

Other lines, results leading:

MIC [1] | MIC [2] | MIC [3] | MIC [4] | MIC [5] | MIC [6] | MIC [7] | MIC [8] | MIC [9] | MIC [10] | SMILES
0.8 µg/mL (≈ 2.09 µM) | 6.3 µg/mL (≈ 16.4 µM) | 1.6 µg/mL (≈ 4.17 µM) | 0.8 µg/mL (≈ 2.09 µM) | 0.8 µg/mL (≈ 2.09 µM) | 0.05 µg/mL (≈ 0.13 µM) | 3.1 µg/mL (≈ 8.09 µM) | 0.4 µg/mL (≈ 1.04 µM) | 0.4 µg/mL (≈ 1.04 µM) | 0.2 µg/mL (≈ 0.522 µM) | CCn1cc(C(=O)O)c(=O)c2c(F)c(F)c(N3CCC(CNC)C3)c(F)c21 (centres unmarked) [Ex. 1C, 1-Ethyl-5,6,8-trifluoro-1,4-dihydro-7-[3-[(methylamino)methyl]-1-pyrrolidinyl]-4-oxo-3-quinolinecarboxylic acid]
0.2 µg/mL (≈ 0.503 µM) | 0.8 µg/mL (≈ 2.01 µM) | 0.4 µg/mL (≈ 1.01 µM) | 0.4 µg/mL (≈ 1.01 µM) | 0.8 µg/mL (≈ 2.01 µM) | 0.013 µg/mL (≈ 0.0327 µM) | 6.3 µg/mL (≈ 15.9 µM) | 0.2 µg/mL (≈ 0.503 µM) | 0.4 µg/mL (≈ 1.01 µM) | 0.2 µg/mL (≈ 0.503 µM) | CCNCC1CCN(c2c(F)c(F)c3c(=O)c(C(=O)O)cn(CC)c3c2F)C1 (centres unmarked) [Ex. 1D, 1-Ethyl-7-[3-[(ethylamino)methyl]-1-pyrrolidinyl]-5,6,8-trifluoro-1,4-dihydro-4-oxo-3-quinolinecarboxylic acid]
0.2 µg/mL (≈ 0.489 µM) | 1.6 µg/mL (≈ 3.91 µM) | 0.4 µg/mL (≈ 0.977 µM) | 0.2 µg/mL (≈ 0.489 µM) | 0.4 µg/mL (≈ 0.977 µM) | 0.025 µg/mL (≈ 0.0611 µM) | 3.1 µg/mL (≈ 7.57 µM) | 0.2 µg/mL (≈ 0.489 µM) | 0.2 µg/mL (≈ 0.489 µM) | 0.1 µg/mL (≈ 0.244 µM) | CCNCC1CCN(c2c(F)c(F)c3c(=O)c(C(=O)O)cn(C4CC4)c3c2F)C1 (centres unmarked) [Ex. 2A, 1-Cyclopropyl-7-[3-[(ethylamino)methyl]-1-pyrrolidinyl]-5,6,8-trifluoro-1,4-dihydro-4-oxo-3-quinolinecarboxylic acid]
